Experimental data from US20260317344A1, “EGFR INHIBITORS FOR TREATING DISEASE” (BLOSSOMHILL THERAPEUTICS, INC., priority 2023, published 2026).

Assays:
EGFR (L858R/T790M/C797S) = EGFR (L858R/T790M/C797S) (Homo sapiens, UniProt P00533, C797S/L858R/T790M); experiment: HotSpot radiometric kinase assay, inhibition of EGFR L858R/T790M/C797S mutant; format: biochemical; details: 33P ATP, room temperature, 120 m
Procedure, shortened: (§1)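 Kinase/substrate pairs in 20 mM HEPES pH 7.5, 10 mM MgCl2, 1 mM EGTA, 0.02% Brij35, 0.02 mg/ml BSA, 0.1 mM Na3VO4, 2 mM DTT, 1% DMSO, preincubated ~20 min with compound. Reaction started with ATP/33P-ATP ([…]), run 120 min at room temperature; phosphorylation read by P81 filter binding, IC50 from curve fits.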

EGFR (D746-750) = EGFR (D746-750) (Homo sapiens, UniProt P00533, DEL746-750); experiment: HotSpot radiometric kinase assay, inhibition of EGFR 746-750 mutant; format: biochemical; details: 33P ATP, room temperature, 120 m
Chain of EGFR (D746-750) (P00533 with tags, fused parts or gaps DEL746-750): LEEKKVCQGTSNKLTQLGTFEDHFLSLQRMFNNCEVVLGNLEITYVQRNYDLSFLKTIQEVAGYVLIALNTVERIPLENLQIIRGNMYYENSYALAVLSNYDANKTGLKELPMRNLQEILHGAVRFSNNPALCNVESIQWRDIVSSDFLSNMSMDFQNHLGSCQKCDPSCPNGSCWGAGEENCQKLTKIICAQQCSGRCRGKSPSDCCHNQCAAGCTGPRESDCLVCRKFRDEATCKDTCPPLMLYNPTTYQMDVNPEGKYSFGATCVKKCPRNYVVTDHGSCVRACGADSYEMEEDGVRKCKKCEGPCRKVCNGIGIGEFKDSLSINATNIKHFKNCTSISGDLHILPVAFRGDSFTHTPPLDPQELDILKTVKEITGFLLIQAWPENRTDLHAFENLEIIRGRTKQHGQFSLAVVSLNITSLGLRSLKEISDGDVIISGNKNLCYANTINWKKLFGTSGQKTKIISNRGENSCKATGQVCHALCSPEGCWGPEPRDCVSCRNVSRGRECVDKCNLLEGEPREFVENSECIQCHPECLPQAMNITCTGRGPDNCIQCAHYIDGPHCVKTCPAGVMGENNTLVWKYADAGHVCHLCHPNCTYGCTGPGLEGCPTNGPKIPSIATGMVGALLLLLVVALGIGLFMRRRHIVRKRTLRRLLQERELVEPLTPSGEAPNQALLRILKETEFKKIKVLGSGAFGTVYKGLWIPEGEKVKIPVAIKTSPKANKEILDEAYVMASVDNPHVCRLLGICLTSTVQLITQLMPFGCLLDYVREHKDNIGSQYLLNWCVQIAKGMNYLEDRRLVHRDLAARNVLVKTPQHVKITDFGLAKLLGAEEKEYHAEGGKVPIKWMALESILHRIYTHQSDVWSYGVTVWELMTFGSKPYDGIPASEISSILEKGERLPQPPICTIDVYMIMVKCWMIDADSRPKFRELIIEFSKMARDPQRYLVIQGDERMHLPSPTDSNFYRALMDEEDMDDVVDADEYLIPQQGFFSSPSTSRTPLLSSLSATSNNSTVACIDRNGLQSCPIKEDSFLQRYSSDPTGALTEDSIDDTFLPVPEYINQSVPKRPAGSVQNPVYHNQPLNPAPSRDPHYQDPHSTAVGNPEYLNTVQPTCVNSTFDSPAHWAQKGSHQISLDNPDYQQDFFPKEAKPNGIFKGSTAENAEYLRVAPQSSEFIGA
Procedure, shortened: as §1

EGFR (D746-750/C797S) = EGFR (D746-750/C797S) (Homo sapiens, UniProt P00533, C797S/DEL746-750); experiment: HotSpot radiometric kinase assay, inhibition of EGFR 746-750/C797S mutant; format: biochemical; details: 33P ATP, room temperature, 120 m
Chain of EGFR (D746-750/C797S) (P00533 with tags, fused parts or gaps DEL746-750/C797S): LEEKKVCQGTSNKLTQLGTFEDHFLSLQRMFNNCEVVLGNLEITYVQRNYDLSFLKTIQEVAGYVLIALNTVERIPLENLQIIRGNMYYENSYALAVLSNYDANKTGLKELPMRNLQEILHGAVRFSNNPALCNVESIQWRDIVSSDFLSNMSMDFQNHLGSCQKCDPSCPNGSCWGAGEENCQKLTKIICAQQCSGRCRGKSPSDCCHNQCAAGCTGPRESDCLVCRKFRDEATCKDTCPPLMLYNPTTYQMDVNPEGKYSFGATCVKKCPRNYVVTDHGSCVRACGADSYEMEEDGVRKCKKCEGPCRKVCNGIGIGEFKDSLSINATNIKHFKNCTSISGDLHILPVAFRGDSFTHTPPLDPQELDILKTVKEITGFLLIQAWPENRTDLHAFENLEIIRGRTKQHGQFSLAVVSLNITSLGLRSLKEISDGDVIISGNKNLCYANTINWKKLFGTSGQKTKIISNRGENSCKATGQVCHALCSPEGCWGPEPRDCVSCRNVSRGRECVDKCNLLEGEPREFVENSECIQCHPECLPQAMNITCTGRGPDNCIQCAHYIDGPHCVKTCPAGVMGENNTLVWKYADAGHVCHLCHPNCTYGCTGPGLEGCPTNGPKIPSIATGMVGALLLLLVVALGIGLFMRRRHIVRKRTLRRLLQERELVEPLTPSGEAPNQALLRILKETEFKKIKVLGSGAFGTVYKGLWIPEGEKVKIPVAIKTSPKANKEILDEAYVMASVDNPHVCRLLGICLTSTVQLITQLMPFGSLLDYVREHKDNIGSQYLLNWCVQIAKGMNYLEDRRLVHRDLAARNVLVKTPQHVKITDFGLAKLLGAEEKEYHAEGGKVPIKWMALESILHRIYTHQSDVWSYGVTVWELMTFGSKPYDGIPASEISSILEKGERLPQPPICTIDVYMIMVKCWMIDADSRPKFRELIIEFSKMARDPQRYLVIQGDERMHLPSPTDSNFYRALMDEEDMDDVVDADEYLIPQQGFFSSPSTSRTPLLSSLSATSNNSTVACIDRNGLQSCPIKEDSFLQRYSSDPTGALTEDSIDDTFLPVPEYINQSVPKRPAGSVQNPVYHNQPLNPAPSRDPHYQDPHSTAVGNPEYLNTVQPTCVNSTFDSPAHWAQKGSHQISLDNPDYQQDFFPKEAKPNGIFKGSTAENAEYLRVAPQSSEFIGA
Procedure, shortened: as §1

EGFR (D770_N771insNPG) = EGFR (D770_N771insNPG) (Homo sapiens, UniProt P00533, INS770NPG); experiment: HotSpot radiometric kinase assay, inhibition of EGFR (D770_N771insNPG) mutant; format: biochemical; details: 33P ATP, room temperature, 120 m
Procedure, shortened: as §1

[1] = molecular target: T1, pEGFR, PC-9 cells (d746-750 EGFR) (Homo sapiens, UniProt P00533, DEL746-750); experiment: Cellular EGFR phosphorylation assay (LANCE Ultra TR-FRET) in PC-9 cells; format: cell-based; details: 4 hours at 37° C., read-out: PC-9 pEGFR IC50
T1 construct: pEGFR (Tyr1068) TR-FRET
T1 sequence (P00533 with tags, fused parts or gaps DEL746-750): as the sequence (P00533 with tags, fused parts or gaps DEL746-750) above
Procedure, shortened: (§2)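 pEGFR Tyr1068 TR-FRET readout, lysates after 4 h compound exposure (37 °C, 5% CO2); 9-dose 3-fold series. A431 only: EGF 40 ng/mL for last 10 min. IC50 from curve fit.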

[2] = molecular target: T2, pEGFR, NCI-H1975 cells (L858R/T790M EGFR) (Homo sapiens, UniProt P00533, L858R/T790M); experiment: Cellular EGFR phosphorylation assay (LANCE Ultra TR-FRET) in NCI-H1975 cells; format: cell-based; details: 4 hours at 37° C., read-out: H1975 pEGFR IC50
T2 construct: pEGFR (Tyr1068) TR-FRET
Procedure, shortened: as §2

[3] = molecular target: T3, pEGFR, A431 cells (wildtype EGFR) (Homo sapiens, UniProt P00533); experiment: Cellular EGFR phosphorylation assay (LANCE Ultra TR-FRET) in A431 cells; format: cell-based; details: 4 hours at 37° C., 40 ng/mL EGF for the final 10 minutes, read-out: A431 pEGFR IC50
T3 construct: pEGFR (Tyr1068) TR-FRET
T3 sequence (P00533 25-1210): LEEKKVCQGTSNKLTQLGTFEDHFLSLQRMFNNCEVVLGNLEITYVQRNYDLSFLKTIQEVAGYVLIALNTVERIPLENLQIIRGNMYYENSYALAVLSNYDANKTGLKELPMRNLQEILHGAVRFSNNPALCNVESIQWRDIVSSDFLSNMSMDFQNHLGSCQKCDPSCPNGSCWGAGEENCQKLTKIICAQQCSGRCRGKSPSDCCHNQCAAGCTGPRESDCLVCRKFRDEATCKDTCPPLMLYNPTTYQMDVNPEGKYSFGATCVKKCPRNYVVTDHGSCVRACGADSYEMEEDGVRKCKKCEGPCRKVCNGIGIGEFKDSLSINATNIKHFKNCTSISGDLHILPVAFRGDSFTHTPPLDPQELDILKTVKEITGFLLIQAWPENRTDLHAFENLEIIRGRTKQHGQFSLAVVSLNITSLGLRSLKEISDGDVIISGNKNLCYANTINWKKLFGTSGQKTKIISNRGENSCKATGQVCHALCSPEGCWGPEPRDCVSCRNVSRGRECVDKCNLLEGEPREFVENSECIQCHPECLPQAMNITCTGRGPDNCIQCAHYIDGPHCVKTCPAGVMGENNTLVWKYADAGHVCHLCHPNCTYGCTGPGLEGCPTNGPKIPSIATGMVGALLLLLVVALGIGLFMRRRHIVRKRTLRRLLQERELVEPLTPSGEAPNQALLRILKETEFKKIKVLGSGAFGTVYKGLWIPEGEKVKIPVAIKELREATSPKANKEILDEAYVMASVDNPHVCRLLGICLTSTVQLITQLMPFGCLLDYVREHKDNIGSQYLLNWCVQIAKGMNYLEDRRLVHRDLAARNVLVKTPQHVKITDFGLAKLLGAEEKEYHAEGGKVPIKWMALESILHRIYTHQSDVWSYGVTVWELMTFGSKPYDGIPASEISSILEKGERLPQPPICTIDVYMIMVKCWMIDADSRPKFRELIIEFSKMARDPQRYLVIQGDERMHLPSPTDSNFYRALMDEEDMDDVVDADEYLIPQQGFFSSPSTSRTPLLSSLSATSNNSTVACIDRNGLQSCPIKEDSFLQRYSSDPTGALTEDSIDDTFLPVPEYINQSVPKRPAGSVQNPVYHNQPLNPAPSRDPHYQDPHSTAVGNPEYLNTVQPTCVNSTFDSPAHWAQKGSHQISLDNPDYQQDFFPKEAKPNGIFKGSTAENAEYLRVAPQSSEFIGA
Procedure, shortened: as §2

PC-9 cells = experiment: 5-Day CellTiter Glo (CTG) cell proliferation assay, PC-9; format: cell-based; details: Homo sapiens; PC-9 cells (d746-750 EGFR), 5-day CTG proliferation, 120 hours; read-out: PC-9 IC50
Procedure, shortened: (§3)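 Luminescent ATP signal (CellTiter-Glo 2.0) after 120 hours of compound exposure gave IC50 values. PC-9 and HCC827 harbour EGFR d746-750; NCI-H1975 harbours L858R/T790M.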

NCI-H1975 cells = experiment: 5-Day CellTiter Glo (CTG) cell proliferation assay, NCI-H1975; format: cell-based; details: Homo sapiens; NCI-H1975 cells (L858R/T790M EGFR), 5-day CTG proliferation, 120 hours; read-out: H1975 IC50
Procedure, shortened: as §3

HCC827 cells = experiment: 5-Day CellTiter Glo (CTG) cell proliferation assay, HCC827; format: cell-based; details: Homo sapiens; HCC827 cells (d746-750 EGFR), 5-day CTG proliferation, 120 hours; read-out: HCC827 IC50
Procedure, shortened: as §3

[4] = test system: BaF3 cells with engineered EGFR L858R/T790M/C797S; experiment: 3-Day CellTiter Glo (CTG) cell proliferation assay, BaF3 EGFR L858R/T790M/C797S; format: cell-based; details: Mus musculus, 3-day CTG proliferation, 72 hours
Procedure, shortened: (§4)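 Viability after 72 h compound exposure (9 concentrations, 37° C, 5% CO2) was measured as ATP luminescence with CellTiter-Glo 2.0 in EGFR-mutant-engineered BaF3 cells plated at one thousand cells per well. IC50 values obtained by curve fitting.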

[5] = test system: BaF3 cells with engineered EGFR L858R/C797S; experiment: 3-Day CellTiter Glo (CTG) cell proliferation assay, BaF3 EGFR L858R/C797S; format: cell-based; details: Mus musculus, 3-day CTG proliferation, 72 hours
Procedure, shortened: as §4

[6] = test system: BaF3 cells with engineered EGFR d746-750/T790M; experiment: 3-Day CellTiter Glo (CTG) cell proliferation assay, BaF3 EGFR d746-750/T790M; format: cell-based; details: Mus musculus; BaF3 EGFR d746-750/T790M cells, 3-day CTG proliferation, 72 hours
Procedure, shortened: as §4

CCOc1nn([C@@H](C)CO)c2c1/C=C/c1n[nH]c3cnc(cc13)-c1c(C)nn(C)c1OCCN(C)C2 [Ex. 59, (2S)-2-[(17E)-16-ethoxy-6,8,12-trimethyl-2,8,10,11,12,13-hexahydro-14H-5,3-(azenometheno)tripyrazolo[3,4-f:3′,4′-j:4″,3″-n][1,4]oxazacyclopentadecin-14-yl]propan-1-ol]
IC50 (EGFR (L858R/T790M/C797S)): 0.99 nM | IC50 (EGFR (D746-750)): 0.37 nM | IC50 (EGFR (D746-750/C797S)): 1.33 nM | IC50 (EGFR (D770_N771insNPG)): 1.13 nM | IC50 [1]: 1.96 nM | IC50 [2]: 1.43 nM | IC50 [3]: 5.29 nM | IC50 (PC-9 cells): 3.21 nM | IC50 (NCI-H1975 cells): 15.7 nM | IC50 (HCC827 cells): 0.94 nM | IC50 [4]: 0.91 nM | IC50 [5]: 0.18 nM | IC50 [6]: 3.62 nM

CCN1Cc2c(c(OCC#N)nn2CCO)/C=C/c2n[nH]c3cnc(cc23)-c2c(C)nn(C)c2O[C@H](C)C1 [Ex. 36, {[(10R,17E)-12-ethyl-14-(2-hydroxyethyl)-6,8,10-trimethyl-2,10,11,12,13,14-hexahydro-8H-5,3-(azenometheno)tripyrazolo[3,4-f:3′,4′-j:4″,3″-n][1,4]oxazacyclopentadecin-16-yl]oxy}acetonitrile]
IC50 (EGFR (L858R/T790M/C797S)): 0.13 nM | IC50 (EGFR (D746-750)): 0.1 nM | IC50 (EGFR (D746-750/C797S)): 0.29 nM | IC50 (EGFR (D770_N771insNPG)): 0.14 nM | IC50 [4]: 1.97 nM | IC50 [5]: 0.47 nM | IC50 [6]: 2.13 nM

Cc1nn(CCO)c2c1/C=C/c1n[nH]c3cnc(cc13)-c1c(C)nn(C)c1O[C@@H](C)CN(C)C2 [Ex. 41, 2-[(10S,17E)-6,8,10,12,16-pentamethyl-2,8,10,11,12,13-hexahydro-14H-5,3-(azenometheno)tripyrazolo[3,4-f:3′,4′-j:4″,3″-n][1,4]oxazacyclopentadecin-14-yl]ethan-1-ol]
IC50 (EGFR (L858R/T790M/C797S)): 0.23 nM | IC50 (EGFR (D746-750)): 0.08 nM | IC50 (EGFR (D746-750/C797S)): 0.23 nM | IC50 (EGFR (D770_N771insNPG)): 0.08 nM | IC50 [4]: 3.74 nM | IC50 [5]: 0.16 nM | IC50 [6]: 13.8 nM

Cc1nc2cc3c(n[nH]c13)/C=C/c1c(OC(C)C)nn(CCO)c1CN(C)C[C@H](C)Oc1c-2cnn1C [Ex. 40, 2-[(10S,17E)-8,10,12,20-tetramethyl-16-[(propan-2-yl)oxy]-2,8,10,11,12,13-hexahydro-14H-5,3-(azenometheno)tripyrazolo[3,4-f:3′,4′-j:4″,3″-n][1,4]oxazacyclopentadecin-14-yl]ethan-1-ol]
IC50 (EGFR (L858R/T790M/C797S)): 0.45 nM | IC50 (EGFR (D746-750)): 0.35 nM | IC50 (EGFR (D746-750/C797S)): 0.97 nM | IC50 (EGFR (D770_N771insNPG)): 1.63 nM | IC50 [1]: 11.4 nM | IC50 [2]: 1.6 nM | IC50 [3]: 14.7 nM | IC50 [4]: 0.92 nM | IC50 [5]: 0.28 nM | IC50 [6]: 3.34 nM

Cc1nn(C)c2c1/C=C/c1n[nH]c3c(C)nc(cc13)-c1c(C)nn(C)c1O[C@@H](C)CN(C)C2 [Ex. 103, (10S,17E)-6,8,10,12,14,16,20-heptamethyl-2,10,11,12,13,14-hexahydro-8H-5,3-(azenometheno)tripyrazolo[3,4-f:3′,4′-j:4″,3″-n][1,4]oxazacyclopentadecine]
IC50 [1]: 9.78 nM | IC50 [2]: 3.44 nM | IC50 [3]: 13.4 nM | IC50 (PC-9 cells): 9.94 nM | IC50 (NCI-H1975 cells): 11.2 nM | IC50 (HCC827 cells): 2.13 nM | IC50 [4]: 1.87 nM | IC50 [5]: 0.56 nM | IC50 [6]: 13.6 nM

CCOc1nn(C[C@H](C)O)c2c1/C=C/c1n[nH]c3c(C)nc(cc13)-c1c(C)nn(C)c1O[C@@H](C)CN(C)C2 [Ex. 90, (2S)-1-[(10S,17E)-16-ethoxy-6,8,10,12,20-pentamethyl-2,8,10,11,12,13-hexahydro-14H-5,3-(azenometheno)tripyrazolo[3,4-f3′,4′-j:4″,3″-n][1,4]oxazacyclopentadecin-14-yl]propan-2-ol]
IC50 [1]: 1.26 nM | IC50 [2]: 1.1 nM | IC50 [3]: 8.44 nM | IC50 (PC-9 cells): 2.37 nM | IC50 (NCI-H1975 cells): 0.97 nM | IC50 (HCC827 cells): 0.58 nM | IC50 [4]: 0.48 nM | IC50 [5]: 0.06 nM | IC50 [6]: 0.61 nM
